{"source": "patent US10981894B2", "about": "“Melanocortin subtype-2 receptor (MC2R) antagonists and uses thereof” (Crinetics Pharmaceuticals, Inc., priority 2018, dated 2021)", "biological_target": "hMC2 receptor (Homo sapiens, UniProt Q01718)", "sequence (Q01718 whole entry)": "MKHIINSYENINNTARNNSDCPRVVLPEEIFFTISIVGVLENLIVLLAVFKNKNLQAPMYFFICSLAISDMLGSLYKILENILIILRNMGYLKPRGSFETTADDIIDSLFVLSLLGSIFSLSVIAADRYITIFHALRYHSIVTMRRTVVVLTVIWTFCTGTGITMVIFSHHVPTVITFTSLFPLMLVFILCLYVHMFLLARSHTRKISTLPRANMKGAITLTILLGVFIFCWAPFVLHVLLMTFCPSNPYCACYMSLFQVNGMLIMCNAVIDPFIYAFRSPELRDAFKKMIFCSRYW", "sequence (Q8TCY5 whole entry partner)": "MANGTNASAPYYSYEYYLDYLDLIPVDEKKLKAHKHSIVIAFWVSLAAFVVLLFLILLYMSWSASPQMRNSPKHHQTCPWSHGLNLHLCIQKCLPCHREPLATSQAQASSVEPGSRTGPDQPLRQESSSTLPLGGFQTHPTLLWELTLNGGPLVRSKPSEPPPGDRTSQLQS", "assay": "hMC2 membrane binding assay ([125I]ACTH (1-39) Tyr23, SPA)", "parameters": "scale not given here", "conditions": "crude hMC2R membranes from CRE-bla-CHO-K1 cells expressing hMC2 receptor and hMRAP; [125I]ACTH (1-39) Tyr23 0.2 nM; 1.5 hours at room temperature; read-out: MC2R binding potency", "method_in_brief": "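Ki comes from non-linear regression of SPA scintillation counts. Displacement of 0.2 nM [125I]ACTH(1-39) Tyr23 by compound dose series (usually 0–10,000 nM final) ran 1.5 h at room temperature. Membranes came from CHO-K1 CRE-bla cells stably expressing hMC2R plus hMRAP, bead-coupled in pH 7.4 buffer with 0.2% BSA.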", "note": "pKi: −log10 of the molar value."}
{"smiles": "CCOc1ncccc1-c1ccc(N2CCN(C(=O)c3ccc(Cl)cc3C(F)(F)F)C[C@H]2CC)c(C(=O)NC[C@H]2CCN2)c1F", "note": "[Compound 1-123, N-{[(2R)-azetidin-2-yl]methyl}-6-[(2R)-4-[4-chloro-2-(trifluoromethyl)benzoyl]-2-ethylpiperazin-1-yl]-3-(2-ethoxypyridin-3-yl)-2-fluorobenzamide]", "values": [{"measurement": "pKi", "value": "> 8.00"}]}
{"smiles": "CCOc1ncccc1-c1ccc(N2CCN(C(=O)c3ccc(Cl)cc3C(F)(F)F)C[C@H]2CC)c(C(=O)NC[C@H]2CCCN2)c1F", "note": "[Compound 1-124, 6-[(2R)-4-[4-chloro-2-(trifluoromethyl)benzoyl]-2-ethylpiperazin-1-yl]-3-(2-ethoxypyridin-3-yl)-2-fluoro-N-{[(2R)-pyrrolidin-2-yl]methyl}benzamide]", "values": [{"measurement": "pKi", "value": "> 8.00"}]}
{"smiles": "CCOc1ncccc1-c1ccc(N2CCN(C(=O)c3ccc(Cl)cc3C(F)(F)F)C[C@H]2CC)c(C(=O)NCC2=NCCN2)c1", "note": "[Compound 1-125, 2-[(2R)-4-[4-chloro-2-(trifluoromethyl)benzoyl]-2-ethylpiperazin-1-yl]-N-[(4,5-dihydro-1H-imidazol-2-yl)methyl]-5-(2-ethoxypyridin-3-yl)benzamide]", "values": [{"measurement": "pKi", "value": "> 8.00"}]}
{"smiles": "CCOc1ncccc1-c1ccc(N2CCN(C(=O)c3ccc(F)cc3C(F)(F)F)C[C@H]2CC)c(C(=O)NCCNC)n1", "note": "[Compound 1-136, 2′-ethoxy-5-[(2R)-2-ethyl-4-[4-fluoro-2-(trifluoromethyl)benzoyl]piperazin-1-yl]-N-[2-(methylamino)ethyl]-[2,3′-bipyridine]-6-carboxamide]", "values": [{"measurement": "pKi", "value": "> 8.00"}]}
{"smiles": "CCOc1ccc(C(=O)N2CCN(c3ccc(-c4cccnc4OCC)nc3C(=O)NCCNC)[C@H](CC)C2)c(C(F)(F)F)c1", "note": "[Compound 1-137, 2′-ethoxy-5-[(2R)-4-[4-ethoxy-2-(trifluoromethyl)benzoyl]-2-ethylpiperazin-1-yl]-N-[2-(methylamino)ethyl]-[2,3′-bipyridine]-6-carboxamide]", "values": [{"measurement": "pKi", "value": "> 8.00"}]}
{"smiles": "CCOc1ncccc1-c1ccc(N2CCN(C(=O)c3ccc(Cl)cc3C(F)(F)F)C[C@H]2CC)c(C(=O)NC[C@H]2COCCN2)c1", "note": "[Compound 1-138, 2-[(2R)-4-[4-chloro-2-(trifluoromethyl)benzoyl]-2-ethylpiperazin-1-yl]-5-(2-ethoxypyridin-3-yl)-N-{[(3S)-morpholin-3-yl]methyl}benzamide]", "values": [{"measurement": "pKi", "value": "> 8.00"}]}
{"smiles": "CCOc1ncccc1-c1ccc(N2CCN(C(=O)c3ccc(Cl)cc3C#N)C[C@H]2CC)c(C(=O)N[C@@H]2CCNC2)c1", "note": "[Compound 1-142, 2-[(2R)-4-(4-chloro-2-cyanobenzoyl)-2-ethylpiperazin-1-yl]-5-(2-ethoxypyridin-3-yl)-N-[(3R)-pyrrolidin-3-yl]benzamide]", "values": [{"measurement": "pKi", "value": "> 8.00"}]}
{"smiles": "CCOc1ncccc1-c1ccc(N2CCN(C(=O)c3ccc(OC)cc3C(F)(F)F)C[C@H]2CC)c(C(=O)N[C@@H]2CCNC2)c1", "note": "[Compound 1-143, 5-(2-ethoxypyridin-3-yl)-2-[(2R)-2-ethyl-4-[4-methoxy-2-(trifluoromethyl)benzoyl]piperazin-1-yl]-N-[(3R)-pyrrolidin-3-yl]benzamide]", "values": [{"measurement": "pKi", "value": "> 8.00"}]}
{"smiles": "CCOc1ncccc1-c1ccc(N2CCN(C(=O)c3ccc(F)cc3N3CC(N)C3)C[C@H]2CC)c(C(=O)NCCN(C)C)c1", "note": "[Compound 1-148, 2-[(2R)-4-[2-(3-aminoazetidin-1-yl)-4-fluorobenzoyl]-2-ethylpiperazin-1-yl]-N-[2-(dimethylamino)ethyl]-5-(2-ethoxypyridin-3-yl)benzamide]", "values": [{"measurement": "pKi", "value": "> 8.00"}]}
{"smiles": "CCOc1ccccc1-c1ccc(N2CCN(C(=O)c3ccc(Cl)cc3C(F)(F)F)C[C@H]2CC)c(C(=O)NCCN(C)C)n1", "note": "[Compound 1-149, 3-[(2R)-4-[4-chloro-2-(trifluoromethyl)benzoyl]-2-ethylpiperazin-1-yl]-N-[2-(dimethylamino)ethyl]-6-(2-ethoxyphenyl)pyridine-2-carboxamide]", "values": [{"measurement": "pKi", "value": "> 8.00"}]}
{"smiles": "CCOc1ncccc1-c1ccc(N2CCN(C(=O)c3ccc(Cl)cc3C(F)(F)F)C[C@H]2CC)c(C(=O)NCCN(C)C)n1", "note": "[Compound 1-150, 5-[(2R)-4-[4-chloro-2-(trifluoromethyl)benzoyl]-2-ethylpiperazin-1-yl]-N-[2-(dimethylamino)ethyl]-2′-ethoxy-[2,3′-bipyridine]-6-carboxamide Acetate]", "values": [{"measurement": "pKi", "value": "> 8.00"}]}
{"smiles": "CCOc1ncccc1-c1ccc(N2CCN(C(=O)c3ccc(Cl)cc3C(F)(F)F)C[C@H]2CC)c(C(=O)N[C@@H]2CCNC2)n1", "note": "[Compound 1-151, 5-[(2R)-4-[4-chloro-2-(trifluoromethyl)benzoyl]-2-ethylpiperazin-1-yl]-2′-ethoxy-N-[(3R)-pyrrolidin-3-yl]-[2,3′-bipyridine]-6-carboxamide]", "values": [{"measurement": "pKi", "value": "> 8.00"}]}
{"smiles": "CCOc1ncccc1-c1ccc(N2CCN(C(=O)c3ccc(Cl)cc3C(F)(F)F)C[C@H]2CC)c(C(=O)N[C@@H]2CCN(C)C2)n1", "note": "[Compound 1-152, 5-[(2R)-4-[4-chloro-2-(trifluoromethyl)benzoyl]-2-ethylpiperazin-1-yl]-2′-ethoxy-N-[(3R)-1-methylpyrrolidin-3-yl]-[2,3′-bipyridine]-6-carboxamide]", "values": [{"measurement": "pKi", "value": "> 8.00"}]}
{"smiles": "CCOc1ncccc1-c1ccc(N2CCN(C(=O)c3ccc(OC)cc3C(F)(F)F)C[C@H]2CC)c(C(=O)NCCNC)c1F", "note": "[Compound 1-155, 3-(2-ethoxypyridin-3-yl)-6-[(2R)-2-ethyl-4-[4-methoxy-2-(trifluoromethyl)benzoyl]piperazin-1-yl]-2-fluoro-N-[2-(methylamino)ethyl]benzamide]", "values": [{"measurement": "pKi", "value": "> 8.00"}]}
{"smiles": "CCOc1ncccc1-c1ccc(N2CCN(C(=O)c3ccc(Cl)cc3Cl)C[C@H]2CC)c(C(=O)NCCNC)c1F", "note": "[Compound 1-156, 6-[(2R)-4-(2,4-dichlorobenzoyl)-2-ethylpiperazin-1-yl]-3-(2-ethoxypyridin-3-yl)-2-fluoro-N-[2-(methylamino)ethyl]benzamide]", "values": [{"measurement": "pKi", "value": "> 8.00"}]}
{"smiles": "CCOc1ncccc1-c1ccc(N2CCN(C(=O)c3ccc(NC)nc3C(F)(F)F)C[C@H]2CC)c(C(=O)NCCNC)c1F", "note": "[Compound 1-163, 3-(2-ethoxypyridin-3-yl)-6-[(2R)-2-ethyl-4-[6-(methylamino)-2-(trifluoromethyl)pyridine-3-carbonyl]piperazin-1-yl]-2-fluoro-N-[2-(methylamino)ethyl]benzamide]", "values": [{"measurement": "pKi", "value": "> 8.00"}]}
{"smiles": "CCOc1ncccc1-c1ccc(N2CCN(C(=O)c3ccc(OC)nc3C(F)(F)F)C[C@H]2CC)c(C(=O)NCCNC)c1F", "note": "[Compound 1-164, 3-(2-ethoxypyridin-3-yl)-6-[(2R)-2-ethyl-4-[6-methoxy-2-(trifluoromethyl)pyridine-3-carbonyl]piperazin-1-yl]-2-fluoro-N-[2-(methylamino)ethyl]benzamide]", "values": [{"measurement": "pKi", "value": "> 8.00"}]}
{"smiles": "CCOc1ccc(C(=O)N2CCN(c3ccc(-c4cccnc4OCC)c(F)c3C(=O)NCCNC)[C@H](CC)C2)c(C(F)(F)F)n1", "note": "[Compound 1-165, 6-[(2R)-4-[6-ethoxy-2-(trifluoromethyl)pyridine-3-carbonyl]-2-ethylpiperazin-1-yl]-3-(2-ethoxypyridin-3-yl)-2-fluoro-N-[2-(methylamino)ethyl]benzamide]", "values": [{"measurement": "pKi", "value": "> 8.00"}]}
{"smiles": "CCOc1ncccc1-c1ccc(N2CCN(C(=O)c3ccc(OC)cc3C(F)(F)F)C[C@H]2CC)c(C(=O)NCCNC)n1", "note": "[Compound 1-167, 2′-ethoxy-5-[(2R)-2-ethyl-4-[4-methoxy-2-(trifluoromethyl)benzoyl]piperazin-1-yl]-N-[2-(methylamino)ethyl]-[2,3′-bipyridine]-6-carboxamide]", "values": [{"measurement": "pKi", "value": "> 8.00"}]}
